Test results taken from patent US6610853B1, “N-(phenylsulfonyl)picolinamide derivatives, process for producing the same, and herbicide” (Kureha Kagaku Kogyo K.K., priority 2000, dated 2003).

Key:
Assay in all cases: Test on herbicidal activity by foliar application
Type in all cases: in vivo
Conditions in all cases: foliar spray, 1 kg/ha, plants at 1-2 leaf stage in pots, evaluated 14 days after spraying
Sinapis arvensis = test system: Sinapis arvensis
Description: (§1) Test on Herbicidal Activity by Foliar Application: Herbicidal solutions of each test compounds, which were prepared by dissolving at predetermined concentrations such a wettable powder of the test compound as that described in the above Formulation Example, were sprayed at dosages of 1 kg/ha over foliar parts of Amaranthus retroflexus, Bidens pilosa, Sinapis arvensis, Stellaria media, Solanum nigrum, Abutilon theophrasti, Convolvulus arvensis, Matricaria chamomilla, Galium aparine, Veronica hederaefolia, and Setaria viridis (each test plant is 1-2 leaf stage) which were grown in pots. 14 days latter after spraying, its herbicidal activity was evaluated in accordance with the below-described system. Herbicidal Activity 1: less than 30% inhibition 2: 30% or more-50% inhibition 3: 50% or more-70% inhibition 4: 70% or more-90% inhibition 5: 90% or more inhibition

Matricaria chamomilla = test system: Matricaria chamomilla
Description: as §1

Convolvulus arvensis = test system: Convolvulus arvensis
Description: as §1

Bidens pilosa = test system: Bidens pilosa
Description: as §1

Solanum nigrum = test system: Solanum nigrum
Description: as §1

Amaranthus retroflexus = test system: Amaranthus retroflexus
Description: as §1

Setaria viridis = test system: Setaria viridis
Description: as §1

Veronica hederaefolia = test system: Veronica hederaefolia
Description: as §1

Abutilon theophrasti = test system: Abutilon theophrasti
Description: as §1

Galium aparine = test system: Galium aparine
Description: as §1

Stellaria media = test system: Stellaria media
Description: as §1

SMILES	Herbicidal activity, Sinapis arvensis (Sinapis arvensis)	Herbicidal activity, Matricaria chamomilla (Matricaria chamomilla)	Herbicidal activity, Convolvulus arvensis (Convolvulus arvensis)	Herbicidal activity, Bidens pilosa (Bidens pilosa)	Herbicidal activity, Solanum nigrum (Solanum nigrum)	Herbicidal activity, Amaranthus retroflexus (Amaranthus retroflexus)	Herbicidal activity, Setaria viridis (Setaria viridis)	Herbicidal activity, Veronica hederaefolia (Veronica hederaefolia)	Herbicidal activity, Abutilon theophrasti (Abutilon theophrasti)	Herbicidal activity, Galium aparine (Galium aparine)	Herbicidal activity, Stellaria media (Stellaria media)
COc1ccc(C(=O)NS(=O)(=O)c2ccccc2OC(F)(F)F)nc1[N+](=O)[O-] [Compound I-778]	5 (90% or more inhibition)	5 (90% or more inhibition)	5 (90% or more inhibition)	5 (90% or more inhibition)	5 (90% or more inhibition)	4 (70% or more-90% inhibition)	3 (50% or more-70% inhibition)	2 (30% or more-50% inhibition)	5 (90% or more inhibition)	4 (70% or more-90% inhibition)	3 (50% or more-70% inhibition)
COC(=O)c1ccccc1S(=O)(=O)NC(=O)c1cc(Cl)cc(OC)n1 [Compound I-221, 2-[[[(4-Chloro-6-methoxypyridin-2-yl)carbonyl]-amino]sulfonyl]benzoic Acid Methyl Ester]	5 (90% or more inhibition)	2 (30% or more-50% inhibition)	4 (70% or more-90% inhibition)	4 (70% or more-90% inhibition)	5 (90% or more inhibition)	5 (90% or more inhibition)	3 (50% or more-70% inhibition)	4 (70% or more-90% inhibition)	4 (70% or more-90% inhibition)	5 (90% or more inhibition)	4 (70% or more-90% inhibition)
COc1cc(Cl)nc(C(=O)NS(=O)(=O)c2ccccc2OC(F)(F)F)c1 [Compound I-795, N-[(2-Trifluoromethoxyphenyl)sulfonyl]-6-chloro-4-methoxy-2-pyridinecarboxamide]	5 (90% or more inhibition)	5 (90% or more inhibition)	3 (50% or more-70% inhibition)	5 (90% or more inhibition)	5 (90% or more inhibition)	4 (70% or more-90% inhibition)	2 (30% or more-50% inhibition)	5 (90% or more inhibition)	4 (70% or more-90% inhibition)	5 (90% or more inhibition)	5 (90% or more inhibition)
COc1cc(Cl)nc(C(=O)NS(=O)(=O)c2ccccc2S(=O)(=O)N(C)C)c1 [Compound I-885, 6-Chloro-4-methoxy-N-[[2-(N,N-dimethylaminosulfonyl)phenyl]sulfonyl]-2-pyridinecarboxamide]	5 (90% or more inhibition)	5 (90% or more inhibition)	5 (90% or more inhibition)	5 (90% or more inhibition)	5 (90% or more inhibition)	5 (90% or more inhibition)	5 (90% or more inhibition)	4 (70% or more-90% inhibition)	5 (90% or more inhibition)	5 (90% or more inhibition)	5 (90% or more inhibition)
O=C(NS(=O)(=O)c1c(Cl)cccc1Cl)c1cccc(Cl)n1 [Compound I-591, N-[(2,6-Dichlorophenyl)sulfonyl]-6-chloro-2-pyridinecarboxamide]	5 (90% or more inhibition)	5 (90% or more inhibition)	5 (90% or more inhibition)	5 (90% or more inhibition)	5 (90% or more inhibition)	5 (90% or more inhibition)	1 (less than 30% inhibition)	5 (90% or more inhibition)	5 (90% or more inhibition)	5 (90% or more inhibition)	5 (90% or more inhibition)
COc1cc(Cl)nc(C(=O)NS(=O)(=O)c2cccc(Cl)c2Cl)c1 [Compound I-345, N-[(2,3-Dichlorophenyl)sulfonyl]-6-chloro-4-methoxypyridine-2-carboxamide]	5 (90% or more inhibition)	4 (70% or more-90% inhibition)	5 (90% or more inhibition)	5 (90% or more inhibition)	5 (90% or more inhibition)	3 (50% or more-70% inhibition)	2 (30% or more-50% inhibition)	3 (50% or more-70% inhibition)	2 (30% or more-50% inhibition)	4 (70% or more-90% inhibition)	4 (70% or more-90% inhibition)
COc1ccc(C(=O)NS(=O)(=O)c2ccccc2S(C)(=O)=O)nc1Br [Compound I-819, 6-Bromo-5-methoxy-N-[[2-(methylsulfonyl)-phenyl]sulfonyl]-2-pyridinecarboxamide]	5 (90% or more inhibition)	5 (90% or more inhibition)	4 (70% or more-90% inhibition)	5 (90% or more inhibition)	5 (90% or more inhibition)	5 (90% or more inhibition)	5 (90% or more inhibition)	3 (50% or more-70% inhibition)	5 (90% or more inhibition)	4 (70% or more-90% inhibition)	5 (90% or more inhibition)
COc1ccc(C(=O)NS(=O)(=O)c2ccccc2S(=O)(=O)N(C)C)nc1Br [Compound I-895, N-[[2-(N,N-Dimethylaminosulfonyl)phenyl]-sulfonyl]-6-bromo-5-methoxy-2-pyridinecarboxamide]	5 (90% or more inhibition)	5 (90% or more inhibition)	5 (90% or more inhibition)	5 (90% or more inhibition)	5 (90% or more inhibition)	5 (90% or more inhibition)	5 (90% or more inhibition)	5 (90% or more inhibition)	5 (90% or more inhibition)	5 (90% or more inhibition)	5 (90% or more inhibition)
COC(=O)c1ccccc1S(=O)(=O)NC(=O)c1cc(OC)cc(Cl)n1 [Compound I-255, 2-[[[(6-Chloro-4-methoxypyridin-2-yl)carbonyl]-amino]sulfonyl]benzoic Acid Methyl Ester]	5 (90% or more inhibition)	5 (90% or more inhibition)	5 (90% or more inhibition)	5 (90% or more inhibition)	5 (90% or more inhibition)	4 (70% or more-90% inhibition)	4 (70% or more-90% inhibition)	5 (90% or more inhibition)	5 (90% or more inhibition)	5 (90% or more inhibition)	5 (90% or more inhibition)
COc1cc(Cl)nc(C(=O)NS(=O)(=O)c2ccccc2Cl)c1 [Compound I-705, N-[(2-Chlorophenyl)sulfonyl]-6-chloro-4-methoxypyridine-2-carboxamide]	5 (90% or more inhibition)	4 (70% or more-90% inhibition)	5 (90% or more inhibition)	5 (90% or more inhibition)	4 (70% or more-90% inhibition)	4 (70% or more-90% inhibition)	3 (50% or more-70% inhibition)	4 (70% or more-90% inhibition)	2 (30% or more-50% inhibition)	4 (70% or more-90% inhibition)	5 (90% or more inhibition)
